Data set [1] addresses T1, TMEM16A (Homo sapiens, UniProt Q5XXA6).
T1 sequence (Q5XXA6 1-986): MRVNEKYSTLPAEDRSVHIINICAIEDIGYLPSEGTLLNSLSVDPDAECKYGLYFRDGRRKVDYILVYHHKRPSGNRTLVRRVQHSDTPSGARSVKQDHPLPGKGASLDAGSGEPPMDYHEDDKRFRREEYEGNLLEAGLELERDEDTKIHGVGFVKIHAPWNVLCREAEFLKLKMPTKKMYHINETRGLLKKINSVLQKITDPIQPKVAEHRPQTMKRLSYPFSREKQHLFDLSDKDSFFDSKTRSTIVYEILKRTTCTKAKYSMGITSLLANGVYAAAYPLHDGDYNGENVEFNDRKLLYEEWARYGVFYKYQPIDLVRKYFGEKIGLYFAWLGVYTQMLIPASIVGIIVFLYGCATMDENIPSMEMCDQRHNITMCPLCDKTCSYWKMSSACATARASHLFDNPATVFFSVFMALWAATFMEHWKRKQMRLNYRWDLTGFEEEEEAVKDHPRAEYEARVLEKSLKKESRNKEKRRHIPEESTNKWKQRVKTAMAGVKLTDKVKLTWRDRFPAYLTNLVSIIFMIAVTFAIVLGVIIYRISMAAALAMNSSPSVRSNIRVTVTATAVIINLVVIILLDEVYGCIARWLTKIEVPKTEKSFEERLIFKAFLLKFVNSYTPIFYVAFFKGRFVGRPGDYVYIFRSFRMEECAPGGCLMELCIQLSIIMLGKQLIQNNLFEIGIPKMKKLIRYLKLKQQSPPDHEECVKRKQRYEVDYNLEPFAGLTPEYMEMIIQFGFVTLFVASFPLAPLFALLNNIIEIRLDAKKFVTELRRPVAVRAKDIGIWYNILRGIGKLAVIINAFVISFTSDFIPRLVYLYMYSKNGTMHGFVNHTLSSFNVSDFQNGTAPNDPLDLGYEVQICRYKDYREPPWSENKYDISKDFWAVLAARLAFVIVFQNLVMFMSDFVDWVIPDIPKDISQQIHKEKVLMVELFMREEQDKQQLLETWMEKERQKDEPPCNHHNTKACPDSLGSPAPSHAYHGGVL
The experiment in a line: TMEM16A functional fluorescence plate reader (FPR) assay, iodide influx in FRT cells with YFP. Type of data set: cell-based. The settings on record: TMEM16A-expressing FRT cells, compound 10 min before iodide/ATP. How it is done: A high-throughput screening assay was previously developed to identify small molecule inhibitors of TMEM16A. […] The assay involved addition of test compounds to the cells for 10 min in a physiological chloride-containing solution, followed by addition of an iodide solution containing ATP. TMEM16A-facilitated iodide influx was determined from the initial time course of decreasing YFP fluorescence.
2-Acylamino-cycloalkylthiophene-3-carboxylic acid arylamides 6aa-6bw were initially evaluated for inhibition of TMEM16A anion channel function using a cell-based functional plate reader assay as reported.
Yields (%) are of the isolated or purified products. IC50 (μM) for inhibition of TMEM16A anion conductance using a fluorescence plate reader (FPR) assay.
Cell lines and culture. Fischer Rat Thyroid (FRT) cells stably co-expressing TMEM16A, TMEM16B and human wild-type CFTR and the halide-sensitive yellow fluorescent protein (YFP)-H148Q were cultured as described. […] For plate reader assays, cells were plated in black 96-well microplates (Corning-Costar Corp., New York, N.Y.) at a density of 20,000 cells per well and assayed 24-48 hours after plating.
TMEM16A functional assay. TMEM16A functional plate-reader assay was done as previously described. […] Test compounds (0.5 μl in DMSO) were added to each well at specified concentration. […] The initial rate of I− influx following each of the solution additions was computed from fluorescence data by nonlinear regression. TMEM16B activity was assayed similarly as described using FRT cells co-expressing YFP and TMEM16B.

For data set [2], the target named is T1, TMEM16A. The experiment in a line: Short-circuit current assay in TMEM16A-expressing FRT cells. Type of data set: cell-based. The text has this: Measurements were done in FRT cells expressing TMEM16A.
(§1) Concentration-dependent inhibition of TMEM16A measured by short-circuit current assay; TMEM16B and non-TMEM16 anion conductance measured using a fluorescence plate reader assay using FRT and HT-29 cells respectively; cell viability measured in FRT null cells.
Short-circuit current measurement. Short-circuit current measurements were done as described. (See Piechowicz, K. A. et al., J Enzyme Inhib Med Chem 2016, 1-7.) Briefly, Snapwell inserts (Corning Costar, Corning, N.Y.) containing TMEM16A-expressing FRT cells were mounted in Ussing chambers (Physiological instruments, San Diego, Calif.). The hemichambers were filled with 5 ml of HCO3^− buffered solution (basolateral) and half-Cl^− solution (apical), and the basolateral membrane was permeabilized with 250 μg/ml amphotericin B. Solutions were bubbled with 95% O2/5% CO2 and maintained at 37° C., and short-circuit current was measured on a DVC-1000 voltage clamp (World Precision Instruments Inc., Sarasota, Fla.) using Ag/AgCl electrodes and 3 M KCl agar bridges.

Data set [3] has as its system FRT null cells. Briefly: Cytotoxicity by Alamar Blue assay in FRT cells. Particulars: 8 h. Type of data set: cell-based, rat. On the procedure: as §1
We further assayed the compound potency on endogenous non-TMEM16A. Ca^2+-activated Cl^− channel in HT-29 cells.
Cytotoxicity. FRT cells were cultured overnight in black 96-well Costar microplates and incubated with 5 μM test compounds for 8 h. Cytotoxicity was measured by Alamar Blue assay (Invitrogen, Carlsbad, Calif.) as per the manufacturer's instructions.
A general note: Alamar Blue is a resazurin reagent that responds to reducing activity.

Data set [4] deals with SW-480 cells. The experiment in a line: SW-480 cell proliferation, AlamarBlue after 72 h. Type of data set: cell-based. The settings on record: Homo sapiens, SW480; AlamarBlue after 72 h of drug treatment; read-out: IC50 inhibition of SW-480 cell proliferation. On the procedure: Compounds according to the present disclosure (structures shown in FIG. 5B) were tested for their inhibitory effect on proliferation of SW-480 cell line.
SW-480 cells were cultured on plastic in Leibovitz L15 medium supplemented with 10% fetal bovine serum, 2 mM L-glutamine, 100 units/mL penicillin, and 100 μg/mL streptomycin. The cells were incubated at 37° C. without CO2.
SW-480 cells were plated into black 96-well microplates (Corning-Costar Corp., New York, N.Y.) at 10% seeding. The cells were treated with test compounds dissolved in DMSO in serial dilution while maintaining the final concentration of DMSO at 0.5%. Plated cells were then incubated for 72 h at 37° C. Cell proliferation was quantified using the AlamarBlue assay (Invitrogen, Carlsbad, Calif.) as per the manufacturer's instructions. Data was normalized against untreated control cells that were lysed for 10 minutes using Triton-X100 (0.1% in PBS).

Data set [5] deals with rat made hypertensive with phenylephrine. The experiment in a line: Blood pressure in anesthetized rat made hypertensive with phenylephrine. The format is in vivo. The settings on record: phenylephrine 0.25 mg IV, then 0.3 mg compound IV, femoral artery catheter. On the procedure:
TMEM16A is expressed in vascular smooth muscle and its inhibition may reduce blood pressure. […] Blood pressure was measured by femoral artery catheter.

Several values for one entry are separate records, joined by “and”; a condition that tells them apart may be missing. Identical values can stand only once.

Regarding `Cc1ccccc1NC(=O)c1c(NC(=O)C(F)(F)F)sc2c1CCCCC2` [Compound 6aa, 2-(2,2,2-Trifluoro-acetylamino)-5,6,7,8-tetrahydro-4H-cyclohepta[b]thiophene-3-carboxylic acid o-tolylamide], the IC50 in data set [1] was found to be 420 nM; in data set [2], 260 nM; in data set [4], 950 nM. In data set [3], the “Cellular survival % at 5 μM” value was found to be 99%.

On to `Cc1ccccc1NC(=O)c1c(NC(=O)C(F)(F)Br)sc2c1CCCCC2` [Compound 6bm, 2-(2-Bromo-2,2-difluoro-acetylamino)-5,6,7,8-tetrahydro-4H-cyclohepta[b]thiophene-3-carboxylic acid o-tolylamide], for which the IC50 in data set [1] was 80 to 180 nM and 83 nM; in data set [2], 30 nM; in data set [4], 7000 nM. Moreover, the “Cellular survival % at 5 μM” value in data set [3] was 97%. The “Effect on blood pressure” value in data set [5] is on record as “acute reduction in blood pressure”.
